Results as given in article PMC10946398 (Journal of Medicinal Chemistry, 2024).
“And” between values parts separate entries of the source, which are not always exact repeats. Identical values can stand only once.

Experiment: parallel artificial membrane permeability assay
Assay type: in vitro ADME
Details: 100 μM, phosphate buffer pH 6.4, 17 h, 37 °C, 150 rpm, triplicates

Structure (SMILES)	PAMPA −LogPe
CC(C)C[C@@H]1NC(=O)[C@H](C)NC(=O)[C@H](Cc2ccccc2)NCc2ccc([nH]2)CNC1=O [14a, (5S,8S,11S)-11-Benzyl-5-isobutyl-8-methyl-1^1H-3,6,9,12-tetraaza-1(2,5)-pyrrolacyclotridecaphane-4,7,10-trione, 1H-Benzo[d][1,2,3]triazol-1-ol]	7.72
CC(C)C[C@@H]1NC(=O)CN(C)C(=O)[C@H](Cc2ccccc2)NCc2ccc([nH]2)CNC1=O [14b, (5S,11S)-11-Benzyl-5-isobutyl-9-methyl-1^1H-3,6,9,12-tetraaza-1(2,5)-pyrrolacyclotridecaphane-4,7,10-trione]	5.89 and 5.89 ± 0.08
CC(C)C[C@H]1C(=O)NCc2ccc([nH]2)CN[C@@H](Cc2ccccc2)C(=O)N[C@@H](C)C(=O)N1C [14c, (5S,8S,11S)-11-Benzyl-5-isobutyl-6,8-dimethyl-1^1H-3,6,9,12-tetraaza-1(2,5)-pyrrolacyclotridecaphane-4,7,10-trione, 1H-Benzo[d][1,2,3]triazol-1-ol]	5.12
CC(C)C[C@@H]1NC(=O)[C@H](C)N(C)C(=O)[C@H](Cc2ccccc2)NCc2ccc([nH]2)CNC1=O [14d, (5S,8S,11S)-11-Benzyl-5-isobutyl-8,9-dimethyl-1^1H-3,6,9,12-tetraaza-1(2,5)-pyrrolacyclotridecaphane-4,7,10-trione]	5.01
CC(C)C[C@@H]1NC(=O)[C@H](C)NC(=O)[C@H](Cc2ccccc2)N(C)Cc2ccc([nH]2)CNC1=O [14e, (5S,8S,11S)-11-Benzyl-5-isobutyl-8,12-dimethyl-1^1H-3,6,9,12-tetraaza-1(2,5)-pyrrolacyclotridecaphane-4,7,10-trione, 1H-Benzo[d][1,2,3]triazol-1-ol]	5.11
CC(C)C[C@@H]1NC(=O)CN(C)C(=O)[C@H](Cc2ccccc2)NCc2ccc(n2C)CNC1=O [15b, (5S,11S)-11-Benzyl-5-isobutyl-1^1,9-dimethyl-1^1H-3,6,9,12-tetraaza-1(2,5)-pyrrolacyclotridecaphane-4,7,10-trione]	5.93
CC(C)C[C@@H]1NC(=O)[C@H](C)N(C)C(=O)[C@H](Cc2ccccc2)NCc2ccc(n2C)CNC1=O [15d, (5S,8S,11S)-11-Benzyl-5-isobutyl-1^1,8,9-trimethyl-1^1H-3,6,9,12-tetraaza-1(2,5)-pyrrolacyclotridecaphane-4,7,10-trione]	6.30
CC(C)C[C@@H]1NC(=O)CN(C)C(=O)[C@H](Cc2ccccc2)NCc2cc(c[nH]2)CNC1=O [16b, (5S,11S,Z)-11-Benzyl-5-isobutyl-9-dimethyl-1^1H-3,6,9,12-tetraaza-1(2,4)-pyrrolacyclotridecaphane-4,7,10-trione]	6.76
CC(C)C[C@@H]1NC(=O)[C@H](C)N(C)C(=O)[C@H](Cc2ccccc2)NCc2cc(c[nH]2)CNC1=O [16d, (5S,8S,11S,Z)-11-Benzyl-5-isobutyl-8,9-dimethyl-1^1H-3,6,9,12-tetraaza-1(2,4)-pyrrolacyclotridecaphane-4,7,10-trione]	7.53
CC(C)C[C@@H]1NC(=O)[C@H](C)N(C)C(=O)[C@H](Cc2ccccc2)NCc2cc(cn2C)CNC1=O [17d, (5S,8S,11S,Z)-11-Benzyl-5-isobutyl-1^1,8,9-trimethyl-1^1H-3,6,9,12-tetraaza-1(2,4)-pyrrolacyclotridecaphane-4,7,10-trione]	6.61 ± 0.07
CC(C)C[C@@H]1NC(=O)CN(C)C(=O)[C@H](Cc2ccccc2)NCC2=CC=C(CNC1=O)O2 [18b, (5S,11S)-11-Benzyl-5-isobutyl-9-methyl-3,6,9,12-tetraaza-1(2,5)-furanacyclotridecaphane-4,7,10-trione]	5.88 and 5.88 ± 0.04
CC(C)C[C@@H]1NC(=O)[C@H](C)NC(=O)[C@H](Cc2ccccc2)NCC2=CC=C(CN(C)C1=O)O2 [19a, (5S,8S,11S)-11-Benzyl-5-isobutyl-3,8-dimethyl-3,6,9,12-tetraaza-1(2,5)-furanacyclotridecaphane-4,7,10-trione]	5.71 and 5.71 ± 0.03
